From US20110097274A1, “Carbon-11 and fluorine-18 labeled radioligands for positron emission tomography (PET) imaging for the brain serotonin transporters” (priority 2002, published 2011)

Legend:
[1] = Experiment 4: plasma analysis, [^11C]AFM and [^18F]AFM in the same baboon
Method: The animal was then injected with [^18F]AFM (2.60 mCi, 425 Ci/mmol, 1.51 μg) and scanned for 90 minutes. […] Arterial activity was corrected for parent fraction to form the input function.

[2] = tested on: SERT; settings: same baboon, one tissue compartment model
Method: The animal was then injected with [^18F]AFM (2.60 mCi, 425 Ci/mmol, 1.51 μg) and scanned for 90 minutes. Analysis of the input function and brain uptake was performed as described in the previous section. […] Arterial activity was corrected for parent fraction to form the input function.
Data were analyzed with a one tissue compartment model.

[3] = Experiment 5: plasma clearance of ^11C and ^18F labeled AFM, AFA, AFE in one baboon; type: in vivo; settings: one adult male baboon, n = 1 to 4 scans
Method: (§1) General scanning methods were as described in Huang et al. (2002). Arterial input function was measured and corrected for metabolites.

[4] = tested on: SERT; test: Experiment 5: PET brain imaging of ^11C and ^18F labeled AFM, AFA, AFE in one baboon; type: in vivo; settings: one adult male baboon, n = 1 to 4 scans, two-compartment model
Method: as §1
Activity distributed in the brain in accordance to the known density distribution pattern of SERT (Laruelle et al., 1988). […] Data were analyzed with a two-compartment model, using the metabolite-corrected arterial time-activity curve as input function. This analysis provided the regional distribution volumes (VT, mL/g).
The nonspecific distribution volume, measured as the distribution volume of the cerebellum (a region with negligible SERT density) was in a similar range for all tracers (10 to 30 mL/g, Table 16).
The specific to nonspecific partition coefficient, V3″, was calculated as the ratio of VT in the region of interest (ROI) to cerebellum VT minus one. V3″ provides a measure related to receptor parameters as follows: […]

[5] = Biodistribution of labeled radioligands in male Sprague-Dawley rats; type: in vivo; settings: mean ± SD, n = 3
Text: Appropriately labeled compounds were studied in animals to assess their binding characteristics in the brain. Procedures for these biodistribution studies are as follows. […] The brain regions (cerebellum, hippocampus, striatum, frontal cortex, thalamus and hypothalamus), along with samples of blood and part of the tail, were removed, weighed, and counted in a Packard Cobra II gamma counter. The percent injected dose (% ID) of the decay- and tail-corrected activity in the brain regions and blood were calculated based upon C-11 standards prepared from the injection solution, and the % ID/g were calculated using the tissue weights.

[6] = tested on: SERT; settings: literature; cited from earlier work
[7] = baboons (Acton et al., 1999a); cited from earlier work

CN(C)Cc1ccccc1Sc1ccc(C[18F])cc1N [[^18F]AFM, [^18F]2-[2-(Dimethylaminomethyl)phenylthio]-5-fluoromethylphenylamine]
Clearance of the parent compound [1]: 54 L/h
Percent plasma activity corresponding to the parent compound ([1]; 2 minutes): 63.5%
Percent plasma activity corresponding to the parent compound ([1]; 4 minutes): 40.0%
Percent plasma activity corresponding to the parent compound ([1]; 12 minutes): 21.3%
Percent plasma activity corresponding to the parent compound ([1]; 30 minutes): 8.7%
Percent plasma activity corresponding to the parent compound ([1]; 60 minutes): 5.3%
Percent plasma activity corresponding to the parent compound ([1]; 90 minutes): 4.6%
Thalamus V3″ [2]: 2.27
Clearance [3]: 40 ± 1 L/h
Cerebellum V (nonspecific distribution volume) [4]: 23 ± 6 mL/g
% ID/g Blood ([5]; 10 min post-injection): 0.37 ± 0.04 % ID/g
% ID/g Cerebellum ([5]; 10 min post-injection): 0.33 ± 0.04 % ID/g
% ID/g Frontal Ctx. ([5]; 10 min post-injection): 0.82 ± 0.14 % ID/g
% ID/g Hippocamp. ([5]; 10 min post-injection): 0.51 ± 0.07 % ID/g
% ID/g Hypothal. ([5]; 10 min post-injection): 0.70 ± 0.08 % ID/g
% ID/g Striatum ([5]; 10 min post-injection): 0.69 ± 0.15 % ID/g
% ID/g Thalamus ([5]; 10 min post-injection): 0.72 ± 0.13 % ID/g
% ID/g Blood ([5]; 30 min post-injection): 0.28 ± 0.02 % ID/g
% ID/g Cerebellum ([5]; 30 min post-injection): 0.23 ± 0.03 % ID/g
% ID/g Frontal Ctx. ([5]; 30 min post-injection): 0.99 ± 0.20 % ID/g
% ID/g Hippocamp. ([5]; 30 min post-injection): 0.64 ± 0.12 % ID/g
% ID/g Hypothal. ([5]; 30 min post-injection): 0.82 ± 0.16 % ID/g
% ID/g Striatum ([5]; 30 min post-injection): 0.83 ± 0.12 % ID/g
% ID/g Thalamus ([5]; 30 min post-injection): 0.88 ± 0.06 % ID/g
% ID/g Blood ([5]; 60 min post-injection): 0.10 ± 0.04 % ID/g
% ID/g Cerebellum ([5]; 60 min post-injection): 0.13 ± 0.02 % ID/g
% ID/g Frontal Ctx. ([5]; 60 min post-injection): 0.71 ± 0.18 % ID/g
% ID/g Hippocamp. ([5]; 60 min post-injection): 0.45 ± 0.09 % ID/g
% ID/g Hypothal. ([5]; 60 min post-injection): 0.71 ± 0.14 % ID/g
% ID/g Striatum ([5]; 60 min post-injection): 0.57 ± 0.12 % ID/g
% ID/g Thalamus ([5]; 60 min post-injection): 0.67 ± 0.15 % ID/g
% ID/g Blood ([5]; 90 min post-injection): 0.08 ± 0.03 % ID/g
% ID/g Cerebellum ([5]; 90 min post-injection): 0.08 ± 0.01 % ID/g
% ID/g Frontal Ctx. ([5]; 90 min post-injection): 0.52 ± 0.19 % ID/g
% ID/g Hippocamp. ([5]; 90 min post-injection): 0.36 ± 0.12 % ID/g
% ID/g Hypothal. ([5]; 90 min post-injection): 0.58 ± 0.13 % ID/g
% ID/g Striatum ([5]; 90 min post-injection): 0.45 ± 0.17 % ID/g
% ID/g Thalamus ([5]; 90 min post-injection): 0.50 ± 0.15 % ID/g
% ID/g Blood ([5]; 120 min post-injection): 0.04 ± 0.00 % ID/g
% ID/g Cerebellum ([5]; 120 min post-injection): 0.07 ± 0.02 % ID/g
% ID/g Frontal Ctx. ([5]; 120 min post-injection): 0.38 ± 0.09 % ID/g
% ID/g Hippocamp. ([5]; 120 min post-injection): 0.28 ± 0.05 % ID/g
% ID/g Hypothal. ([5]; 120 min post-injection): 0.55 ± 0.08 % ID/g
% ID/g Striatum ([5]; 120 min post-injection): 0.42 ± 0.10 % ID/g
% ID/g Thalamus ([5]; 120 min post-injection): 0.56 ± 0.10 % ID/g

CN(C)Cc1ccccc1Sc1ccc([123I])cc1N [[^123I]ADAM]
Target to background ratio in vivo compared to [^123I]IDAM [6]: four times higher
VT CER measured with SPECT [7]: 2.25 ± 0.46 mL/g
